For orientation: melting point means the temperature of the solid-liquid transition.

A value given as a limit tells only on which side of the number the result lay.

The values that follow come from US8217045B2, “Organic compounds” (Novartis AG, priority 2007, dated 2012).

As for `Cc1cn(-c2cc(NC(=O)c3cccc4cc(Oc5ccnc(NC(=O)C(C)(C)C)c5)ccc34)cc(C(F)(F)F)c2)cn1` [Example 3], the melting point is over 120 °C.
For `Cc1cn(-c2cc(NC(=O)c3cccc4cc(Oc5ccnc(NC(=O)C(C)(C)O)c5)ccc34)cc(C(F)(F)F)c2)cn1` [Example 4, 6-[[2-(2-Hydroxy-2-methylpropylcarbonyl)amino-pyridin-4-yl]oxy]-naphthalene-1-carboxylic acid [3-(4-methyl-1H-imidazol-1-yl)-5-(trifluoromethylphenyl)]amide], the melting point was 248 to 251 °C.
In turn, `Cc1cn(-c2cc(NC(=O)c3cccc4cc(Oc5cc(NC(=O)C6CC6)ncn5)ccc34)cc(C(F)(F)F)c2)cn1` [Example 20, 6-[[6-(Cyclopropanecarbonyl)amino-pyrimidin-4-yl]oxy]-naphthalene-1-carboxylic acid [3-(4-methyl-imidazol-1-yl)-5-trifluoromethyl-phenyl]-amide] displayed a melting point of 216 to 220 °C.
`Cc1cn(-c2cc(NC(=O)c3cccc4cc(Oc5cc(N)ncn5)ccc34)cc(C(F)(F)F)c2)cn1` [Example 21, 6-[[6-Amino-pyrimidin-4-yl]oxy]-naphthalene-1-carboxylic acid [3-(4-methyl-imidazol-1-yl)-5-trifluoromethyl-phenyl]-amide] came in with a melting point of over 148 °C.
`Cc1cn(-c2cc(NC(=O)c3cccc4cc(Oc5ccnc(Nc6nccs6)c5)ccc34)cc(C(F)(F)F)c2)cn1` [Example 22, 6-[[N-[2-(4-methyl-2-thiazolyl)amino]-pyridin-4-yl]oxy]-naphthalene-1-carboxylic acid [3-(4-methyl-1H-imidazol-1-yl)-5-(trifluoromethylphenyl)]amide] yielded a melting point of 277 to 282 °C.
